According to US12528777B2, “Quinazolinones derivatives for treatment of non-alcoholic fatty liver disease, preparation and use thereof” (Council of Scientific and Industrial Research, priority 2020, dated 2026):
Entries after “also recorded” stand apart in the source; their conditions may differ.

Tests used:
ATGL = assay: Western blot of ATGL level in HepG2 cells; format: cell-based; parameters: key to Increase in ATGL level: + = slight or in insignificant; ++ = Moderate; +++ and ++++ = active; +++ and ++++ = active; +++++ = very active; conditions: western blot; for Increase in ATGL level: HepG2 cells, score; for ATGL level in HepG2 cells: 24 hours, 10 μM screening or 50 nM-5 μM dose dependent
Experimental: (§1) To select the compounds capable of inhibiting the ubiquitination of ATGL by COP1 by targeting the VP motif, confocal microscopy was performed with the provided molecules. If the compound was effective in inhibiting the interaction, there would be a reduction in the number of fat droplets in the cells after treatment. […] With this rationale in mind, HepG2 cells were induced to accumulate lipid droplets after treatment with 250 µM of oleate and 10 μM of the specific compounds were added. The potential of the compounds to bring about a reduction in the number of fat droplets was then checked by comparison with oleate induced cells by counting number of droplets of approximately 20 cells from each treatment and calculating the average number of lipid droplets of each cell. The selected compounds were then subjected to dose dependent treatments and the ones which could maintain its potency to reduce fat droplets at lower doses were then selected for western blot analysis. The compound which could reduce the number of fat droplets in the cells are expected to raise the levels of ATGL since they are likely to deter COP1 from ubiquitinating ATGL. This increase will be visible only in the protein level and gene expression is likely to remain unchanged since ubiquitination is a […] modification. Thus, western blot was performed to check ATGL levels in the cells with the selected molecules.
HepG2 cells were treated with the compounds 9, 10, 11, 17, 18, 23, 24, 115, 123, 127, 139,107, 171, 179, 73, 187, 211, 215, 219, 223, 232, 238, 241, 244, 258, 299, 308, and 333a, (10 μM for initial screening and 50 nM, 100 nM, 200 nM, 500 nM, 1 μM and 5 μM for dose dependent assays) for 24 hours. After removing media from the cells, the wells were washed with 1×PBS twice to remove any remnant media. Cells were then lysed in lysis buffer containing 50 mM Tris-HCl (pH 7.4), 100 mM NaCl, 1 mM EDTA, 1 mM EGTA, 1% Triton X-100 and protease inhibitor cocktail (Millipore, Billierica, MA, USA). Following centrifugation at 20,000 g for 20 minutes, the protein solution was extracted from the cells. Protein was estimated using Bradford assay. Bradford's reagent (BioRad) was diluted in 1:4 ratio in double distilled water. 2 μl of protein sample was added to 100 μl of the reagent and absorbance was measured at 595 nm. […] of protein was diluted in lysis buffer. 1× loading buffer diluted from 5× stock containing 250 mM Tris-HCl (pH 6.8), 10% SDS, 50% glycerol, 0.1% bromophenol Blue and 10% β-mercaptoethanol was added. The protein samples were then heated at 95° C. for 10 minutes, cooled and centrifuged at 12,000 g for 2 minutes prior to loading.
For western blotting, the proteins were resolved in 10% SDS PAGE (discontinuous buffer system). 1× running buffer containing SDS, Tris Base and Glycine was used to run the gel at 80V for approximately 2 hours. Transfer was done using PVDF membrane (Millipore) having pore size of 0.45 μm. 1× transfer buffer containing Tris-Base, Glycine and 20% methanol was used for wet transfer. Transfer was done at 90V for 3 hours. Following transfer, the PVDF membrane containing the proteins were washed in 1×PBST comprising of 1×PBS and 1% Tween 20 (Sigma Aldrich). The membrane was then incubated for 1 hour at room temperature in 5% skim milk powder to block the non-specific sites. Following multiple washes with 1×PBST to wash away any remaining blocking buffer, the required primary antibody (COP1 [Bethyl Laboraties], ATGL [Cell Signalling Technology] or Actin[Cell Signalling Technology]) prepared with 1×PBST, 1% Bovine Serum Albumin and 0.04% Sodium Azide was added to the membrane and incubated overnight at 4° C. The next day, the membrane was again washed multiple times with 1×PBST to remove any unbound primary antibody. The membrane was then incubated with goat anti-rabbit secondary antibody (Genei) for 1 hour at room temperature and washed again for multiple times with 1×PBST. […]

HepG2 cells = assay: Confocal microscopy: lipid droplets in oleate induced HepG2 cells; format: cell-based; parameters: key to Reduction in Lipid Droplets: + = slight or in insignificant; ++ = Moderate; +++ and ++++ = active; +++ and ++++ = active; +++++ = very active; conditions: for Reduction in Lipid Droplets: oleate induced HepG2 cells, score; for Number of lipid droplets: HepG2 cells, 250 μM oleate induction
Experimental: as §1
HepG2 cells were plated in confocal dishes (SPL, Genetix Biotech Asia Pvt. Ltd.). The cells were allowed to adhere and divide for 16 hours. 10 μM for initial screening and 10 nM, 20 nM, 50 nM, 100 nM, 200 nM, 500 nM, 1 μM and 5 μM for dose dependent assays of the compounds 9 and 107 were dissolved in DMSO and added to the cells. 250 μM of oleate was used for induction. BSA (Sigma Aldrich) was used as a negative control. Post 24 hours of treatment, media was decanted from the cells and washed with 1×PBS solution to remove any remnant. 200 μl of staining solution containing 200 ng/ml BODIPY (Invitrogen) and 25 µg/ml HOECKST342 (Invitrogen) were added to the cells and incubated at 37° C. for 30 minutes under dark conditions. Cells were washed 3 times with 1×PBS to remove excess stain. FLUOVIEW FV10i (Olympus) was used to visualise the cells.

| Compound | Increase in ATGL level (ATGL) | Reduction in Lipid Droplets (HepG2 cells) | ATGL level in HepG2 cells (ATGL) | Number of lipid droplets (HepG2 cells) |
| --- | --- | --- | --- | --- |
| CCOC(=O)Cn1cnc2ccc(NC(=O)Nc3cccc(C(C)=O)c3)cc2c1=O [Compound 85, ethyl 2-(6-(3-(3-acetylphenyl)ureido)-4-oxoquinazolin-3 (4H)-yl)acetate] | + | + | – | – |
| CC(=O)c1cccc(NC(=O)Nc2ccc3ncn(-c4cccnc4)c(=O)c3c2)c1 [Compound 155, 1-(3-acetylphenyl)-3-(4-oxo-3-(pyridin-3-yl)-3,4-dihydroquinazolin-6-yl)urea] | ++ | +++ | some sort of increase in ATGL level | reduction in lipid droplets |
| COCCn1cnc2ccc(NC(=O)Nc3cccc(N(C)C(C)=O)c3)cc2c1=O [Compound 23, N-(3-(3-(3-(2-methoxyethyl)-4-oxo-3,4-dihydroquinazolin-6-yl)ureido)phenyl)-N-methylacetamide] | ++++ | ++ | increased ATGL level | – |
| COCCn1cnc2cc(NC(=O)Nc3cccc(C(C)=O)c3)ccc2c1=O [Compound 192, 1-(3-acetylphenyl)-3-(3-(2-methoxyethyl)-4-oxo-3,4-dihydroquinazolin-7-yl)urea] | +++ | ++ | – | – |
| CCOCCn1cnc2ccc(NC(=O)Nc3cccc(C(C)=O)c3)cc2c1=O [Compound 93, 1-(3-acetylphenyl)-3-(3-(2-ethoxyethyl)-4-oxo-3,4-dihydroquinazolin-6-yl)urea] | ++++ | +++ | some sort of increase in ATGL level | reduction in lipid droplets |
| COCCn1cnc2ccc(NC(=O)Nc3ccc(OC(F)(F)F)cc3)cc2c1=O [Compound 37, 1-(3-(2-methoxyethyl)-4-oxo-3,4-dihydroquinazolin-6-yl)-3-(4-(trifluoromethoxy)phenyl)urea] | + | + | – | – |
| COCCn1cnc2cc(NC(=O)Nc3ccc(C(C)=O)cc3)ccc2c1=O [Compound 193, 1-(4-acetylphenyl)-3-(3-(2-methoxyethyl)-4-oxo-3,4-dihydroquinazolin-7-yl)urea] | + | + | – | – |
| CCOC(=O)c1cccc(NC(=O)Nc2ccc3ncn(CCOC)c(=O)c3c2)c1 [Compound 42, ethyl 3-(3-(3-(2-methoxyethyl)-4-oxo-3,4-dihydroquinazolin-6-yl)ureido)benzoate] | + | + | – | – |
| COCCn1cnc2ccc(NC(=O)Nc3cccc(C(=O)c4ccccc4)c3)cc2c1=O [Compound 14, 1-(3-benzoylphenyl)-3-(3-(2-methoxyethyl)-4-oxo-3,4-dihydroquinazolin-6-yl)urea] | + | + | – | – |
| CC(=O)c1cccc(NC(=O)Nc2ccc3ncn(CCN4CCOCC4)c(=O)c3c2)c1 [Compound 135, 1-(3-acetylphenyl)-3-(3-(2-morpholinoethyl)-4-oxo-3,4-dihydroquinazolin-6-yl)urea] | +++ | ++ | some sort of increase in ATGL level | reduction in lipid droplets |
| COCCn1cnc2ccc(NC(=O)Nc3ccc(F)c(Cl)c3)cc2c1=O [Compound 36, 1-(3-chloro-4-fluorophenyl)-3-(3-(2-methoxyethyl)-4-oxo-3,4-dihydroquinazolin-6-yl)urea] | +++ | + | – | – |
| COCCn1c(-c2ccc(F)cc2)nc2ccc(NC(=O)Nc3cccc(C(C)=O)c3)cc2c1=O [Compound 115, 1-(3-acetylphenyl)-3-(2-(4-fluorophenyl)-3-(2-methoxyethyl)-4-oxo-3,4-dihydroquinazolin-6-yl)urea] | + | + | – | – |
| COCCn1cnc2ccc(NC(=O)Nc3cccc([N+](=O)[O-])c3)cc2c1=O [Compound 8, 1-(3-(2-methoxyethyl)-4-oxo-3,4-dihydroquinazolin-6-yl)-3-(3-nitrophenyl)urea] | + | ++ | – | – |
| CCc1cccc(NC(=O)Nc2ccc3ncn(CCOC)c(=O)c3c2)c1 [Compound 13, 1-(3-ethylphenyl)-3-(3-(2-methoxyethyl)-4-oxo-3,4-dihydroquinazolin-6-yl)urea] | + | + | – | – |
| COCCn1cnc2ccc(NC(=O)Nc3cccc(-c4nc5ccccc5o4)c3)cc2c1=O [Compound 21, 1-(3-(benzo[d]oxazol-2-yl)phenyl)-3-(3-(2-methoxyethyl)-4-oxo-3,4-dihydroquinazolin-6-yl)urea] | + | + | – | – |
| COCCn1cnc2ccc(NC(=O)Nc3ccccc3OC)cc2c1=O [Compound 41, 1-(3-(2-methoxyethyl)-4-oxo-3,4-dihydroquinazolin-6-yl)-3-(2-methoxyphenyl)urea] | ++++ | ++ | – | – |
| COCCn1cnc2ccc(NC(=O)Nc3cccc(C(=O)N(C)C)c3)cc2c1=O [Compound 17, 3-(3-(3-(2-methoxyethyl)-4-oxo-3,4-dihydroquinazolin-6-yl)ureido)-N,N-dimethylbenzamide] | +++ | +++ | increased ATGL level; also recorded: ability to increase ATGL level | – |
| CCOCCn1cnc2ccc(NC(=O)Nc3ccc(C(C)=O)cc3)cc2c1=O [Compound 94, 1-(4-acetylphenyl)-3-(3-(2-ethoxyethyl)-4-oxo-3,4-dihydroquinazolin-6-yl)urea] | + | ++ | – | – |
| COCCn1cnc2ccc(NC(=O)Nc3cccc(C(=O)NC(C(=O)OC)C(C)C)c3)cc2c1=O (centres unmarked) [Compound 16, methyl 2-(3-(3-(3-(2-methoxyethyl)-4-oxo-3,4-dihydroquinazolin-6-yl)ureido)benzamido)-3-methylbutanoate] | ++++ | +++ | – | – |
| CCOC(=O)Cn1cnc2ccc(NC(=O)Nc3ccc(OC(F)(F)F)cc3)cc2c1=O [Compound 84, ethyl 2-(4-oxo-6-(3-(4-(trifluoromethoxy)phenyl)ureido)quinazolin-3 (4H)-yl)acetate] | ++ | +++ | – | – |
| COCCn1cnc2ccc(NC(=O)Nc3ccc(OC)cc3)cc2c1=O [Compound 40, 1-(3-(2-methoxyethyl)-4-oxo-3,4-dihydroquinazolin-6-yl)-3-(4-methoxyphenyl)urea] | ++++ | ++ | – | – |
